# According to publication PMC8179336, “Impact of sphingosine and acetylsphingosines on the aggregation and toxicity of metal-free and metal-treated amyloid-β” (Chemical Science, 2020):
# Target: T1, amyloid-β (Aβ40) (Homo sapiens, UniProt P05067)
# T1 construct: gene APP; Aβ40
# Experiment: ITC and 2D 1H-15N SOFAST-HMQC NMR (below and above the CAC)
# Type: binding
# T1 sequence (P05067 672-711 limits assumed): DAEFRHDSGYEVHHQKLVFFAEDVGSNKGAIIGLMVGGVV
row,Structure (SMILES),ITC and 2D 1H-15N SOFAST-HMQC NMR (below and above the CAC)
1,"CCCCCCCCCCCCC/C=C/[C@@H](O)[C@H](CO)NC(C)=O [N-Ac-SP, (2S,3R,4E)-2-(acetylamino)-4-octadecene-1,3-diol]",Interactions between the two acetylsphingosines and Aβ exhibited spontaneous complexation showing an endothermic process
2,"CCCCCCCCCCCCC/C=C/[C@H](OC(C)=O)[C@@H](N)CO [3-O-Ac-SP, (2S,3S,E)-2-amino-1-hydroxyoctadec-4-en-3-yl acetate]",These observations indicate weak and nonspecific interactions of both N-Ac-SP and 3-O-Ac-SP towards Aβ.
3,"CCCCCCCCCCCCC/C=C/[C@@H](O)[C@@H](N)CO [SP, (2S,3R)-2-aminooctadec-4-trans-ene-1,3-diol]","For the association of SP with Aβ, an endothermic isotherm was recorded with negative Gibbs free energy change"
